Data reported in US8481525B2, “Kinase inhibitors and method of treating cancer with same” (University of Health Network, priority 2009, dated 2013).

What was measured:
HUV-EC-C cells = assay: In Vitro Angiogenesis Assay (tube formation); conditions: HUV-EC-C cells on ECMatrix, 4 hr; FIGS. 1 and 2
[1] = tested on: human mammary epithelial primary cells (HMEC); assay: Cell growth inhibition, Sulforhodamine B assay (SRB); conditions: 120 h, read-out: Cell Line GI50 Range HMEC
[2] = tested on: SK-OV-3 ovarian cancer cell line; assay: Cell growth inhibition, SRB assay, extended panel; assay type: cell-based; conditions: Homo sapiens, SK-OV-3, 120 h, read-out: GI50 Range
Description: (§1) The cells were cultured for 5 days before the Sulforhodamine B assay (SRB) was performed to determine the compound's cell growth inhibition activity.
(§2) Sulforhodamine B (purchased from Sigma, Oakville, ON, Canada) is a water-soluble dye that binds to the basic amino acids of the cellular proteins. Thus, colorimetric measurement of the bound dye provides an estimate of the total protein mass that is related to the cell number. the cells are fixed in situ by gently aspirating off the culture media and adding 50 μl ice cold 10% Trichloroacetic Acid (TCA) per well and incubate at 4° C. for 30-60 min, The plates are washed with water five times and allowed to air dry for 5 min. […] Following staining, plates are washed four times with 1% acetic acid to remove unbound dye and then allowed to air dry for 5 min. […] Absorbance is read at 570 nm.
(§3) The percentage (%) of relative growth inhibition was calculated by comparing to DMSO treated only cells (100%). GI50's were determined for compounds with cytotoxic activity. The GI50 was calculated using GraphPad PRISM software (GraphPad Software, Inc., San Diego, Calif., USA).
(§4) The sulforhodamine B assay (SRB) described above was use to assay test compounds against the extended panel (Table 6).

[3] = tested on: 184A1 immortalized breast cell line; assay: Cell growth inhibition, SRB assay, extended panel; assay type: cell-based; conditions: 184A1, 120 h, read-out: GI50 Range
Description: as §1, §2, §3, §4

[4] = tested on: BT474 breast cancer cell line; assay: Cell growth inhibition, SRB assay, extended panel; assay type: cell-based; conditions: Homo sapiens, BT-474, 120 h, read-out: GI50 Range
Description: as §1, §2, §3, §4

[5] = tested on: HCT-15 colon cancer cell line; assay: Cell growth inhibition, SRB assay, extended panel; assay type: cell-based; conditions: Homo sapiens, HCT-15, 120 h, read-out: GI50 Range
Description: as §1, §2, §3, §4

[6] = tested on: SKBR3 breast cancer cell line; assay: Cell growth inhibition, SRB assay, extended panel; assay type: cell-based; conditions: Homo sapiens, SK-BR-3, 120 h, read-out: GI50 Range
Description: as §1, §2, §3, §4

[7] = tested on: HCT116+/+ colon cancer cell line; assay: Cell growth inhibition, SRB assay, extended panel; assay type: cell-based; conditions: Homo sapiens, HCT-116, 120 h, read-out: GI50 Range
Description: as §1, §2, §3, §4

[8] = tested on: SW 626 ovarian cancer cell line; assay: Cell growth inhibition, SRB assay, extended panel; assay type: cell-based; conditions: Homo sapiens, SW626, 120 h, read-out: GI50 Range
Description: as §1, §2, §3, §4

[9] = tested on: PC-3 prostate cancer cell line; assay: Cell growth inhibition, SRB assay, extended panel; assay type: cell-based; conditions: 120 h, read-out: GI50 Range
Description: as §1, §2, §3, §4

[10] = tested on: HCT116+/− colon cancer cell line; assay: Cell growth inhibition, SRB assay, extended panel; assay type: cell-based; conditions: Homo sapiens, HCT-116, 120 h, read-out: GI50 Range
Description: as §1, §2, §3, §4

[11] = tested on: HCC1954 basal breast cancer cell line; assay: Cell growth inhibition, Sulforhodamine B assay (SRB); assay type: cell-based; conditions: Homo sapiens, HCC1954, 120 h, read-out: Cell Line GI50 Range HCC-1954
How it was run: (§5)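 Cells were exposed to compound for 5 days, then fixed in situ with ice-cold 10% TCA at 4 °C and stained with sulforhodamine B to estimate total protein mass.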

[12] = tested on: SW620 colon cancer cell line; assay: as above; assay type: cell-based; conditions: Homo sapiens, SW-620, 120 h, read-out: Cell Line GI50 Range SW-620, SW620 colon cancer cell line; 5 days culture; SRB
How it was run: as §5

CN(C)Cc1ccc(/C=C/c2n[nH]c3cc([C@@H]4C[C@@]45C(=O)Nc4ccccc45)ccc23)cc1 (racemic) [Example A23, (1R*,2S*)-(E)-2-(3-(4-((dimethylamino)methyl)styryl)-1H-indazol-6-yl)spiro[cyclopropane-1,3′-indolin]-2′-one 2,2,2-trifluoroacetate] was tested, and the “anti-angiogenic effect (tube formation, % of control tube count)” value (HUV-EC-C cells) was “anti-agiogenic effects at submicromolar concentrations”, the GI50 [1] was over 10 µM and the GI50 [2] was 1 to 50 µM. It also gave a GI50 [3] of 1 to 50 µM, a GI50 [4] of 1 to 50 µM and a GI50 [5] of 1 to 50 µM. The GI50 [6] was 1 to 50 µM, the GI50 [7] was 1 to 50 µM and the GI50 [8] was 1 to 50 µM. The GI50 [9] was 1 to 50 µM, the GI50 [10] was 1 to 50 µM and the GI50 [11] was 1 to 10 µM. The GI50 [12] was under 0.1 µM.
